One block for each molecule: values may come before it. Where a SMILES comes first, the peptide text is derived from it. [ ]: non-standard residue; d: D form. The star is where a group is joined. PhAc = O=C(Cc1ccccc1)*
Assays:
[1] = molecular target: T1, isopenicillin N synthetase (cyclase) (Streptomyces clavuligerus, UniProt P10621); experiment: Cyclization of peptide substrates by S. clavuligerus cyclase, penicillin formed measured by bioassay against M. luteus; type: biochemical; conditions: for kinetics of cyclization with the cyclase (Fig 1): formation of penicillin G from PCV, synthesis of isopenicillin N from ACV
T1 construct: The broken cell suspension was ultra-centrifuged at 100,000 x g; endogenous in cells; host or cells: Streptomyces clavuligerus ATCC 27064
T1 sequence (P10621 1-329): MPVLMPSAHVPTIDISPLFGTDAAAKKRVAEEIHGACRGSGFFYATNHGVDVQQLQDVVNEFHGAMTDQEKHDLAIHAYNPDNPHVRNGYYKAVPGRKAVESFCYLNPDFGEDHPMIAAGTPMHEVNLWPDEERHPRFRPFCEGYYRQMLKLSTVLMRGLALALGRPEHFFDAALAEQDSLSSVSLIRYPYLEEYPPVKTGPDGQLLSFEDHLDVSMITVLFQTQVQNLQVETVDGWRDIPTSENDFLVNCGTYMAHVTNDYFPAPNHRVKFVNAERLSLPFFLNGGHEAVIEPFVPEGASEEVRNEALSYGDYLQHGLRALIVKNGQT
Description: S. clavuligerus ATTC 27064 was maintained and grown as described by O'Sullivan et al. in Biochem. J. 179:47-52, 1979. 250 ml of culture were harvested by centrifugation at 10,000 x g for 5 minutes, washed four times by resuspension in sterile saline solution and centrifuged as before. The precipitated cells, resuspended in 25 ml of […] Tris-HCl buffer pH 7.5 containing 0.1mM DTT (TD buffer), were sonicated as described in J. Antibiot. 35:483-490, 1982, using a Branson Sonifier Cell Disruptor (B-12). The broken cell suspension was ultra-centrifuged at 100,000 x g (Beckman L5-65B) for 90 minutes, treated with 0.2 (w/v) protamine sulphate and the clear extract precipitated with ammonium sulphate (30-80% saturation, for example 50-80% saturation). The resulting precipitate was resuspended in 3 ml of TD buffer and applied to a Sephadex (Trade Mark) G-25, PD-10 column (Pharmacia). Aliquots of 1 ml were collected and assayed for isopenicillin N synthetase (cyclase) activity. Fractions 4 and 5, containing maximal activity, were mixed and employed for the reaction. The cyclase extracts were stored frozen at -20 C. Protein was measured by the method of Lowry et al described in J. Biol. Chem. 193:265-273, 1951.
Cyclization activity of the cyclase on ACV or PCV was assayed by a slightly modified version of the method described by Jensen et al. in J.Antibiot, 35:483-490, 1982 and in Antibiotics and Other Secondary Metabolites pages 141-164, Academic Press. The reaction mixture contained 30mM Tris-HCl buffer pH 7.5; 0.5 mM FeSO₄; 1mM bis-ACV or 3mM bis-PCV; 4mM DTT; 3 mM Na ascorbate and enzyme (10mg of protein) in a final reaction volume of 0.5 ml. The reaction mixture was incubated at 25°C for 90 min and stopped by adding 0.5ml of methanol.
The formation of isopenicillin N and benzylpenicillin was measured by bioassay against M. luteus ATCC 9341 following the hole plate method described in Biochem. J. 103:877-890, 1967. Penicillin N and benzylpenicillin were used as standards. One unit of antibiotic (penicillin N or benzylpenicillin) gave a zone of inhibition equivalent to 1µg or 1.58 µg of penicillin N or benzylpenicillin respectively with M. luteus luteus ATCC 9341 as test organism.

[2] = molecular target: T2, isopenicillin N synthetase (cyclase) (Penicillium chrysogenum, UniProt P08703); experiment: Cyclization of peptide substrates by P. chrysogenum cyclase, penicillin formed measured by bioassay; type: biochemical
T2 construct: The mycelium was disrupted by sonification for 5 minutes; endogenous in cells
T2 sequence (P08703 1-331): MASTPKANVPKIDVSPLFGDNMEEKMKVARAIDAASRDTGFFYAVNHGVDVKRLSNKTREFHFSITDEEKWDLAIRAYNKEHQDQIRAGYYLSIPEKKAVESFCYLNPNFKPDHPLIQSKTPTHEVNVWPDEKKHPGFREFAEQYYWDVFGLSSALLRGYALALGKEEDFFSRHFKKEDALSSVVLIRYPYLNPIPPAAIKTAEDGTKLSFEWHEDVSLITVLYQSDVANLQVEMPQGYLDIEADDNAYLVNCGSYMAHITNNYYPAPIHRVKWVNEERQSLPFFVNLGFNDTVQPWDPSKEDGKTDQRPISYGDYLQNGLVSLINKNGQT
Description: Example 2 was repeated but using isopenicillin N synthetase extracted from a high producing strain of Penicillium chrysogenum (Penicillium chrysogenum AS-P-78, Luengo et al J. Antibiot. 144:869-876). Cells containing high isopenicillin N synthetase activity were obtained in a two stage process as described in J. Antibiot. 144:869-876. Cell free extracts were obtained as described by Ramos et al in Antimicrob. Agents Chemother. 27(3):380-387. Mycelium of P. chrysogenum was collected at 24 hours of cultivation in cephalosporin production medium (CP medium) and resuspended in 30mM Tris-HCl buffer pH 8.0 containing 0.1mM dithiothreitol (DTT). The mycelium was disrupted by sonification for 5 minutes. The extract was centrifuged at 100,000 x g for 1 hour at 4°C in a Beckman L8-70 ultracentrifuge and the resulting crude extract was stored at -20°C. Isopenicillin N synthetase were purified as previously described in Antimicrob. Agents Chemother. 27(3):380-387. The isopenicillin N and benzylpenicillin formed by cyclization of 0.2mM ACV or 2mM PCV using […] was assayed by the following bioassay. After the reactions were stopped with methanol, triplicate 50 µl samples were applied to wells 7mm in diameter in plates containing 15ml of Tryptic Soy Agar (TSA) medium (Difco) innoculated with Micrococcus luteus (0.5 ml of a culture having an O.D. of 1.0 at 600nm). Control samples of pure isopenicillin N or benzylpenicillin were treated with methanol in a similar way to the reaction samples. The samples in the assay plates were kept at 4°C for 3 hours to allow diffusion and then incubated at 30°C for 12 hours. The cell free extracts of P. chrysogenum AS-P-78 (5-20 mg of protein/ml) were incubated at 25°C for 30 minutes in a reaction mixture containing 30mM Tris-HCl buffer pH 8.1, 0.1mM FeSO₄, 6mM DTT, 3mM Na ascorbate and 3mM POCV. The pH was adjusted to 2.0.

[3] = molecular target: T3, isopenicillin N synthetase (cyclase) (Hapsidospora chrysogena, UniProt P05189); experiment: Cyclization of peptide substrates by A. chrysogenum cyclase, penicillin formed measured by bioassay; type: biochemical, Acremonium chrysogenum
T3 construct: The mycelium was disrupted by sonification for 2 minutes; endogenous in cells
T3 sequence (P05189 1-338): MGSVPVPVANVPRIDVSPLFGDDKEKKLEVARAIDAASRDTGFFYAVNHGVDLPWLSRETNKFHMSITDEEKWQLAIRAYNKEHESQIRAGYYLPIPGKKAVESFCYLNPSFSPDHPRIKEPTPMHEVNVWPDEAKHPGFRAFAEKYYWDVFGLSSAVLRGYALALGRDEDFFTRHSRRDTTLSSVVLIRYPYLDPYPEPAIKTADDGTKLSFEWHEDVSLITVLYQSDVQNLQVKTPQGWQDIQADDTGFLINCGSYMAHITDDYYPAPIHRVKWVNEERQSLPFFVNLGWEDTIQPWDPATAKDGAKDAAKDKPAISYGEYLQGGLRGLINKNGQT
Description: Example 2 was repeated but using isopenicillin N synthetase extracted from a high producing strain of Acremonium chrysogenum (A. chrysogenum C-10 available from A. L. Demain).
Cells containing high isopenicillin N synthetase activity were obtained in a two stage process as described in J. Antibiot. 144:869-876. A. chrysogenum cultures were developed in seed medium for 4 days and these used to innoculate 60ml of chemically defined cephalosporin production medium, (CP medium). Cell free extracts were obtained as described by Ramos et al in Antimicrob. Agents Chemother. 27(3):380-387. Mycelium of A. chrysogenum was collected at 64 hours of cultivation in CP medium and resuspended in 30mM Tris-HCl buffer pH 8.0 containing 0.1mM dithiothreitol (DTT). The mycelium was disrupted by sonification for 2 minutes. The extract was centrifuged at 100,000 x g for 1 hour at 4°C in a Beckman L8-70 ultracentrifuge and the resulting crude extract was stored at -20 C. Isopenicillin N synthetase was purified as previously described in Antimicrob. Agents Chemother. 27(3):380-387.
Bioassay of the isopenicillin N and benzylpenicillin formed by the A. chrysogenum cyclase was performed in a similar way to the method described in Example 3 for assaying the penicillins produced by the cyclase extracted from P. chrysogenum.
Example 4 was repeated but using POCV as substrate in place of PCV. POCV was prepared as described in Example 5. The cyclase was extracted from A. chrysogenum AS-C-80 and incubated in the reaction mixture described in Example 5, with the exception that the pH of the Tris buffer was 7.8.

[4] = tested on: isopenicillin N synthetase, also called cyclase; conditions: added to the reaction mixture; cited from earlier work

sensitivity of the cyclization product to β-lactamase I from Bacillus careus [1]: sensitive to β-lactamase I | Benzylpenicillin (U/ml) ([1]; complete reaction mixture with PCV as substrate): 0.15 U/ml | kinetics of cyclization with the cyclase (Fig 1) [1]: slow time dependent course | activity of the cyclization product against M. luteus ATTC 9341 ([1]; hole plate bioassay): active against M. luteus ATTC 9341 | loss of antibacterial activity of the cyclization product ([1]; incubated with 2 I.U. of penicillin acylase at 30°C for 10 minutes): over 90 per cent | Isopenicillin N¹ or Benzylpenicillin² (U/ml) ([1]; substrate PCV (3mM bis-PCV), control reaction mixture, 25°C, 90 min, benzylpenicillin as standard): 0.15 U/ml | Isopenicillin N¹ or Benzylpenicillin² (U/ml) ([1]; substrate PCV, + Penicillin acylase (2 I.U, 10 min.), benzylpenicillin as standard): 0.01 U/ml | Isopenicillin N¹ or Benzylpenicillin² (U/ml) ([1]; substrate PCV, + β-lactamase, benzylpenicillin as standard): 0.00 U/ml | inactivation of the reaction product by penicillin acylase [2]: inactivated by penicillin acylase | inactivation of the reaction product by penicillinase [2]: completely inactivated | inactivation of the reaction product by penicillin acylase [3]: inactivated by penicillin acylase | inactivation of the reaction product by penicillinase [3]: completely inactivated
SMILES: CC(C)[C@@H](NC(=O)[C@H](CS)NC(=O)Cc1ccccc1)C(=O)O [PCV, phenylacetyl-L-cysteinyl-D-valine] (PhAc-Cys-[dV]-OH)

Penicillin V (U/ml) ([2]; complete reaction mixture, 3mM POCV, Tris-HCl buffer pH 8.1, 25°C, 30 minutes, P. chrysogenum AS-P-78 cell free extract): 0.18 U/ml | Penicillin V (U/ml) ([3]; complete reaction mixture, 3mM POCV, Tris buffer pH 7.8, cyclase from A. chrysogenum AS-C-80): 0.25 U/ml
SMILES: CC(C)[C@@H](NC(=O)[C@H](CS)NC(=O)COc1ccccc1)C(=O)O [POCV, phenoxyacetyl-L-cysteinyl-D-valine]

kinetics of cyclization with the cyclase (Fig 1) [1]: much faster | sensitivity of the cyclization product to penicillin acylase ([1]; isopenicillin N obtained from the cyclization of ACV): not sensitive to penicillin acylase | Isopenicillin N¹ or Benzylpenicillin² (U/ml) ([1]; substrate ACV (1mM bis-ACV), control reaction mixture, 25°C, 90 min, isopenicillin N measured using penicillin N as standard): 40 U/ml | Isopenicillin N¹ or Benzylpenicillin² (U/ml) ([1]; substrate ACV, + Penicillin acylase (2 I.U, 10 min.), isopenicillin N measured using penicillin N as standard): 38 U/ml | Isopenicillin N¹ or Benzylpenicillin² (U/ml) ([1]; substrate ACV, + β-lactamase, isopenicillin N measured using penicillin N as standard): 0 U/ml | inactivation of the reaction product by penicillin acylase [2]: did not occur | inactivation of the reaction product by penicillinase [2]: completely inactivated | inactivation of the reaction product by penicillinase [3]: completely inactivated
SMILES: CC(C)[C@@H](NC(=O)[C@H](CS)NC(=O)CCC[C@H](N)C(=O)O)C(=O)O [ACV, δ-(L-α-aminoadipyl)-L-cysteinyl-D-valine, reference compound]

SMILES: N[C@@H](CCC(=O)N[C@@H](CS)C(=O)NCC(=O)O)C(=O)O [glutathione, γ-glutamyl-cysteinyl-glycine]
effect on ACV cyclization [4]: inhibited

Reference: patent EP0209363B1, “Heteropeptides, intermediates in the biosynthesis of penicillins” (Antibioticos, S.A., priority 1985, dated 1987)
